Measurements from patent publication US20250002465A1, “TRIMERIC COPPER CATALYSTS, INTERMEDIATES FOR MAKING SUCH CATALYSTS AND METHOD FOR PREPARING A CYCLOADDITION COMPOUND” (University of Kentucky Research Foundation, priority 2023, published 2025).

What was measured:
[1] = Catalytic CuAAC reaction in water (phenylacetylene, benzyl azide), conversion by GC
[2] = Cyclic voltammetry, oxidation potential; type: physicochemical
[3] = system: SUM-159; experiment: Cytotoxicity, MTT assay; type: cell-based; settings: SUM-159 cells, 72 hours
Method: FIG. 5 is a-b) Effect of 6 and 7 on cell viability in TNBC cells treated with the complexes for 72 hours. Mean±s.e.m. n=3. c) Structure of AuDTC-alkyne used for click experiment.
We first evaluated the cytotoxicity of the complexes (6 and 7) in triple-negative breast cancer cells, MDA-MB-468 and SUM-159 using MTT assay.

[4] = system: MDA-MB-468 cells; experiment: Intracellular Cu(I)-catalyzed click chemistry and mitochondria colocalization, confocal microscopy; type: cell-based; settings: 100 μM catalyst, no THPTA or ascorbate
[5] = Stability of the complex to air, moisture and H2O2 (colour, EPR, UV-visible spectroscopy); type: physicochemical; settings: for Colour change in the presence of air or moisture: over the course of weeks, solid or solution
Method: FIG. 2 illustrates Left: UV-vis absorbance spectra of 3+(CH3CN)4CuPF6 in H2O after 18 hours with 5 molar equivalents of H2O2. Right: UV-vis absorbance spectra after addition of N-methylimidazole to 3+(CH3CN)4CuPF6+5 molar equivalents of H2O2 in H2O after 18 hours incubation.
One of the most important aspects of catalysts for the biologically compatible CuAAC reaction is the ability to perform the reaction while not forming any ROS. Most Cu (I) complexes can be rapidly oxidized by oxygen to Cu (II) and form O2—, one of the first ROS that can then go on to react in myriad ways. […] To further verify this, we performed EPR measurements on solutions of 6 in the absence and presence of H2O2.
We then tested the chemical oxidation of solutions of 7 by UV-visible spectroscopy […]. Increasing amounts of H2O2 were added and the absorption spectrum was measured (FIG. 2).
Without the addition of oxidant, an absorption peak at 280 nm is the lowest energy feature in the spectrum. Aqueous solutions of Cu^2+ ions absorb visible light, typically due to low energy d-d transitions. Therefore, if Cu^2+ was formed, we would expect to observe the appearance of a new absorption in the visible region.

[6] = system: MDA-MB-468; experiment: Cytotoxicity, MTT assay; settings: read-out: IC50 (cytotoxicity), MDA-MB-468 cells, 72 hours
[7] = catalyst concentration 20 mM, room temperature, 4 hr, average of two runs
[8] = CH2Cl2, glassy carbon working electrode

Compound: CCCCn1c2ccccc2nc1[C@H]1C[C@@H](c2nc3ccccc3n2CCCC)C[C@@H](c2nc3ccccc3n2CCCC)C1 [compound 2, Cis,cis-1,3,5-cyclohexanetribenzimidazole-1-butyl-2-yl]
- Conversion [1, 7]: nearly quantitative

Compound: COCCOCCn1c2ccccc2nc1[C@H]1C[C@@H](c2nc3ccccc3n2CCOCCOC)C[C@@H](c2nc3ccccc3n2CCOCCOC)C1 [compound 3, Cis,cis-1,3,5-cyclohexanetribenzimidazole-1-(2-(2-methoxyethoxy)ethyl)-2-yl]
- Conversion [1, 7]: nearly quantitative
- Oxidation wave [2, 8]: irreversible oxidation near the same potential

Compound: (Cis,cis-1,3,5-cyclohexanetribenzimidazole-1-(2-(2-methoxyethoxy)ethyl)-2-yl)2(Cu(I)PF6)3 [compound 7]
- Conversion ([1]; 50 mM loading, water, 35° C., 1 hour): 75%
- Conversion ([1]; catalyst concentration 0.5 μM, water, 35° C., 18 hr): 33%
- Conversion ([1]; catalyst concentration 0.5 μM, water, ambient conditions, 18 hours): 6%
- Conversion ([1]; catalyst concentration 1.0 μM, water, 35° C., 18 hr): 64%
- Conversion ([1]; catalyst concentration 1 μM, water, ambient conditions, 18 hours): 8%
- Conversion ([1]; catalyst concentration 5 μM, water, 35° C., 18 hr): ~88%
- Conversion ([1]; catalyst concentration 5 μM, water, ambient conditions, 18 hours): ~13%
- Conversion ([1]; catalyst concentration 10 μM, water, 35° C., 18 hr): quantitative
- Conversion ([1]; catalyst concentration 10 μM, water, ambient conditions, 18 hours): ~13%
- Conversion ([1]; catalyst concentration 50 μM, water, ambient conditions, 18 hours): ~36%
- IC50 [3]: > 100 µM
- Click reaction between AuDTC-alkyne and azide fluorescein in cells [4]: effectively catalyzed
- Oxidation wave ([2]; 0.1 M LiClO4 in H2O, Hg/Hg2SO4 reference): did not observe an oxidation wave
- Irreversible reduction wave (Cu+/Cu0) ([2]; CH2Cl2): ~0 V vs. SCE
- Oxidation wave [2, 8]: 1.85 V vs SCE
- Change of UV-visible absorption spectrum with N-methylimidazole and H2O2 ([5]; in-situ formed 7, five equivalents of H2O2 plus N-methylimidazole): no change in the absorption spectrum
- Colour change in the presence of air or moisture [5]: did not change color
- Change of UV-visible absorption spectrum with H2O2 ([5]; up to five molar equivalents of peroxide, 18 hours, room temperature): no appreciable change in the absorption spectrum
- IC50 [6]: 78.6 µM

Compound: (Cis,cis-1,3,5-cyclohexanetribenzimidazole-1-butyl-2-yl)2(Cu(I)PF6)3 [compound 6]
- Conversion [1, 7]: 98%
- IC50 [3]: 84.1 µM
- Colour change in the presence of air or moisture [5]: did not change color
- EPR active species (Cu2+) after H2O2 addition ([5]; solution, EPR): no EPR active species
- IC50 [6]: 46.7 µM

Compound: c1ccc2[nH]c([C@H]3C[C@@H](c4nc5ccccc5[nH]4)C[C@@H](c4nc5ccccc5[nH]4)C3)nc2c1 [compound 1, Cis,cis-1,3,5-cyclohexanetribenzimidazole-2-yl]
- Conversion [1, 7]: ~18%

Compound: OCCCn1cc(CN(Cc2cn(CCCO)nn2)Cc2cn(CCCO)nn2)nn1.[Cu] [THPTA, Cu tris-(hydroxypropyltriazolyl)-methylamine, reference compound]
- IC50 [6]: 22.4 µM
